According to US20260083129A1, “PYRAZOLE AMIDE INSECTICIDES” (FMC CORPORATION, priority 2022, published 2026):

Test system: cotton melon aphid (Aphis gossypii (Glover))
Assay: Test C: control of cotton melon aphid on sprayed okra plant
Format: in vivo
Details: sprayed at 250 ppm; assessed after 6 days
Protocol: Test compounds were formulated using a solution containing 10% acetone, 90% water and 300 ppm Activator 90@non-ionic surfactant (Loveland Products, Loveland, Colorado, USA). The formulated compounds were applied in 1 mL of liquid through an atomized nozzle positioned 1.27 cm (0.5 inches) above the top of each test unit. Test compounds were sprayed at the rates indicated, and each test was replicated three times.
For evaluating control of cotton melon aphid (Aphis gossypii (Glover)) through contact and/or systemic means, the test unit consisted of a small open container with a 5-day-old okra plant inside. This was pre-infested with 30-40 insects on a piece of leaf according to the cut-leaf method, and the soil of the test unit was covered with a layer of sand.
Test compounds were formulated and sprayed at 250, 50, 10, and 2 ppm with three replications as described above. After spraying, the test units were maintained in a growth chamber for 6 days at 19° C. and 70% relative humidity. Each test unit was then visually assessed for insect mortality.

For `CC(c1c([N+](=O)[O-])cnn1-c1ncccn1)N(C)C(=O)c1cc(C(F)(F)F)cc(C(F)(F)F)c1` (stereo not shown) [Compound 96], the mortality was “at least 80%”.
